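Five concentrations, 48 hours, 96-well plates. GI50 is the concentration that inhibits growth by half. TGI denotes the concentration required for complete inhibition of growth.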
Key:
Assay in all cases: growth of human tumour cells (NCI), 48 h
[1] = system: M14 melanoma
[2] = system: 786-0 renal
[3] = system: BT-549 breast
[4] = system: ACHN renal
[5] = system: NCI-H226 lung
[6] = system: CCRF-CEM leukemia
[7] = system: SF-539 CNS
[8] = system: UACC-62 melanoma
[9] = system: HOP-62 NSCLC
[10] = system: HCT-15 colon
[11] = system: OVCAR-4 ovarian
[12] = system: A549 NSCLC
[13] = system: NCI/ADR-RES ovarian
[14] = system: IGROV1 ovarian
[15] = system: RPMI-8226 leukemia
[16] = system: A498 renal
[17] = system: HCT-116 colon
[18] = system: CAKI-1 renal
[19] = system: MCF7 breast
[20] = system: KM12 colon
[21] = system: SR leukemia
[22] = system: UACC-257 melanoma
[23] = system: HS 578T breast
[24] = system: OVCAR-5 ovarian
[25] = system: COLO 205 colon
[26] = system: LOX IMVI melanoma
[27] = system: SNB-19 CNS
[28] = system: OVCAR-3 ovarian
[29] = system: HL-60(TB) leukemia
[30] = system: SNB-75 CNS
[31] = system: RXF 393 renal
[32] = system: SF-268 CNS
[33] = system: PC-3 prostate
[34] = system: MDA-MB-231 breast
[35] = system: OVCAR-8 ovarian
[36] = system: SK-OV-3 ovarian
[37] = system: U251 CNS
[38] = system: HT29 colon
[39] = system: UO-31 renal
[40] = system: MOLT-4 leukemia
[41] = system: DU-145 prostate
[42] = system: NCI-H460 lung
[43] = system: NCI-H522 lung
[44] = system: SK-MEL-2 melanoma
[45] = system: SF-295 CNS
[46] = system: SK-MEL-28 melanoma
[47] = system: SK-MEL-5 melanoma
[48] = system: SN12C renal
[49] = system: HCC-2998 colon
[50] = system: K-562 leukemia
[51] = system: SW-620 colon
[52] = system: MDA-MB-435

## O=S(=O)(Nc1ncccn1)c1ccc(N=Nc2ccc(O)c3ncccc23)cc1
[1]
  GI50: 8.59 µM
  TGI: 26.6 µM
[2]
  GI50: 7.17 µM
  TGI: 58.1 µM
[3]
  GI50: 10.7 µM
  TGI: 27 µM
[4]
  GI50: 5.18 µM
  TGI: 24.4 µM
[5]
  GI50: 13.4 µM
  TGI: 30.5 µM
[6]
  GI50: 3.29 µM
  TGI: 24.8 µM
[7]
  GI50: 4.67 µM
  TGI: 21.9 µM
[8]
  GI50: 3.4 µM
  TGI: 14 µM
[9]
  GI50: 9.15 µM
  TGI: 76.1 µM
[10]
  GI50: 4.05 µM
  TGI: 22.5 µM
[11]
  GI50: 4.51 µM
  TGI: 71.7 µM
[12]
  GI50: 5.46 µM
  TGI: 29 µM
[13]
  GI50: 5.37 µM
  TGI: 51.8 µM
[14]
  GI50: 4.37 µM
  TGI: 33 µM
[15]
  GI50: 3.94 µM
  TGI: 25.2 µM
[16]
  GI50: 12.5 µM
  TGI: 27.2 µM
[17]
  GI50: 4.2 µM
  TGI: 40.4 µM
[18]
  GI50: 3.82 µM
  TGI: 21 µM
[19]
  GI50: 5.67 µM
  TGI: 29.4 µM
[20]
  GI50: 5.87 µM
  TGI: 29.8 µM
[21]
  GI50: 4.62 µM
  TGI: 63 µM
[22]
  GI50: 14.8 µM
  TGI: 45.2 µM
[23]
  GI50: 3 µM
  TGI: 13.1 µM
[24]
  GI50: 29.7 µM
  TGI: 89.2 µM
[25]
  GI50: 26.2 µM
  TGI: > 100 µM
[26]
  GI50: 8.7 µM
  TGI: 33.7 µM
[27]
  GI50: 6.83 µM
  TGI: > 100 µM
[28]
  GI50: 6.25 µM
  TGI: 59.4 µM
[29]
  GI50: 6.34 µM
  TGI: 32.1 µM
[30]
  GI50: 2.01 µM
  TGI: 11 µM
[31]
  GI50: 9.95 µM
  TGI: 29.2 µM
[32]
  GI50: 9.14 µM
  TGI: 87 µM
[33]
  GI50: 15.6 µM
  TGI: > 100 µM
[34]
  GI50: 15.9 µM
  TGI: 97.1 µM
[35]
  GI50: 3.6 µM
  TGI: 27.2 µM
[36]
  GI50: 19.2 µM
  TGI: > 100 µM
[37]
  GI50: 4.71 µM
  TGI: 30.4 µM
[38]
  GI50: 22.6 µM
  TGI: 78 µM
[39]
  GI50: 1.94 µM
  TGI: 12.4 µM
[40]
  GI50: 5.68 µM
  TGI: 51.2 µM
[41]
  GI50: 12 µM
  TGI: > 100 µM
[42]
  GI50: 3.69 µM
  TGI: 17.2 µM
[43]
  GI50: 5 µM
  TGI: 25.7 µM
[44]
  GI50: 18.3 µM
  TGI: 43.6 µM
[45]
  GI50: 2.89 µM
  TGI: 12 µM
[46]
  GI50: 12.5 µM
  TGI: 46.3 µM
[47]
  GI50: 6.85 µM
  TGI: 20.7 µM
[48]
  GI50: 6.43 µM
  TGI: 53.4 µM
[49]
  GI50: 12.2 µM
  TGI: 29 µM
[50]
  GI50: 3.23 µM
  TGI: 61.2 µM
[51]
  GI50: 5.67 µM
  TGI: 33.7 µM
[52]
  GI50: 5.31 µM
  TGI: 21.8 µM
